Patent publication EP1142583A1, “ANTITUMOR AGENTS” (TEIKOKU HORMONE MFG. CO., LTD., priority 1999, dated 2000)
Read-outs that look alike come from different tables or passages of the source.

Test system: WiDr cells
Experiment: Cell death rate by flow cytometry (PI DNA content, EPICS XL)
Format: cell-based, human
Conditions: for Cell death rate (%): WiDr cells
Experimental: DMEM medium containing 10% fetal bovine serum was placed in plastic culture dishes having a diameter of 6 cm. Then, WiDr cells (obtained from HSRRB), which were human colon carcinoma cells, were inoculated thereinto so as to give a density of 2.0 x 10^5 cells/3 mL. These culture dishes were incubated at 37°C for 48 hours. Moreover, 1/1000 volume of PD98059 (with a final concentration of 50 µmol/L) or solvent (DMSO) was added thereto, followed by incubation for 12 hours. Thereafter, 1/1000 volume of TZT-1027 (with a final concentration of 10 nmol/L) or solvent (a lactic acid buffer) was added thereto. Where vincristine was used as the microtubule-interfering agent, 1/1000 volume of vincristine sulfate (with a final concentration of 100 nmol/L) or solvent (DMSO) was added thereto. Twenty-four (24), 48, 72 or 96 hours after the addition of TZT-1027, vincristine or solvent, cells were collected and worked up according to the following procedure. With respect to a solvent control group and a group treated with PD98059 alone, cells were similarly collected and worked up after 96 hours' incubation.
First of all, all of the culture medium was transferred to a centrifuge tube. The remaining cells were suspended by adding 1 mL of a 0.05% trypsin/phosphate-buffered physiological saline (PBS)-EDTA solution to the culture dish and incubating it at 37°C for 5 minutes, and combined with the above culture medium. The centrifuge tube was centrifuged at 1,500 rpm for 5 minutes. Then, the precipitate was resuspended in 1 mL of PBS, transferred to a light-shielding microtube, and centrifuged at 2,500 rpm for 5 minutes. After the precipitate was suspended in 60 µL of PBS, 140 µL of 100% ethanol was added thereto and the resulting suspension was stirred and allowed to stand at -20°C overnight or longer. Moreover, the suspension was centrifuged at 2,500 rpm for 5 minutes, and 100 µL of a phosphate-citric acid buffer (0.2M […] : 0.1M citric acid = 24:1) was added to the precipitate, followed by stirring (at 500 rpm) at room temperature for 30 minutes. After suspension was centrifuged at 2,500 rpm for 5 minutes, 100 µL of PBS and 1 µL of an RNase solution (10 mg/mL (PBS); obtained from SIGMA) was added to the precipitate, followed by incubation at 37°C for 30 minutes. Thereafter, 880 µL of PBS and 20 µL of a propidium iodide (hereinafter referred to as "PI") solution (1 mg/mL (PBS); obtained from Wako Pure Chemical Industries Ltd.) were added thereto and reacted at room temperature for 30 minutes with stirring. The resulting reaction mixture was allowed to stand in the dark under cooling with ice until it was used for measurement.
The cell death rate was measured and analyzed by means of an EPICS XL system (manufactured by COULTER). Prior to analysis, the EPICS XL system was checked by means of DNAcheck (manufactured by COULTER).
Next, a protocol used for calculating the cell death rate by using the DNA content as a parameter was constructed. In this protocol, FS (forward scatter), SS (side scatter) and FL3 (PI fluorescence) were selected as parameters, and the number of analyzed cells was 30,000. Furthermore, by measuring a control sample of cells to be actually measured, the sensitivity of the detector and regions were preset with consideration for each parameter. Measurements were made by pipetting a sample at several times, transferring it into an exclusive tube, and setting it in the main unit of the EPICS XL system. The cell death rate was calculated by use of histograms in the protocol, which were constructed by removing doublets and triplets from data incorporating dead cells.

[1] = Homo sapiens, WiDr, 96 h, read-out: Cell death rate (%)
[2] = Homo sapiens, WiDr, 24 h, read-out: Cell death rate (%)
[3] = Homo sapiens, WiDr, 48 h, read-out: Cell death rate (%)

COc1cccc(-c2cc(=O)c3ccccc3o2)c1N [PD98059, 2-(2-amino-3-methoxyphenyl)-4H-chromen-4-one]
cytotoxicity at 50 µM [1]: 8.9%

CC[C@H](C)[C@@H]([C@@H](CC(=O)N1CCC[C@H]1[C@H](OC)[C@@H](C)C(=O)NCCc1ccccc1)OC)N(C)C(=O)[C@@H](NC(=O)[C@H](C(C)C)N(C)C)C(C)C [TZT-1027, N^2-(N,N-Dimethyl-L-valyl)-N-[(1S,2R)-2-methoxy-4-[(2S)-2-[(1R,2R)-1-methoxy-2-methyl-3-oxo-3-[(2-phenylethyl)-amino]propyl]-1-pyrrolidinyl]-1-[(S)-1-methylpropyl]-4-oxobutyl]-N-methyl-L-valinamide]
cytotoxicity at 0.01 µM [2]: 3.8%
cytotoxicity at 0.01 µM [3]: 9.2%
cytotoxicity at 0.01 µM [1]: 23.3%
Cell death rate (%) (TZT-1027 10 nmol/L combined with PD98059 50 µmol/L (added 12 hours before), time 24): 10.5%
Cell death rate (%) (TZT-1027 10 nmol/L combined with PD98059 50 µmol/L (added 12 hours before), time 48): 35.9%
Cell death rate (%) (TZT-1027 10 nmol/L combined with PD98059 50 µmol/L (added 12 hours before), time 96): 48.1%

CC[C@]1(O)C[C@H]2CN(CCc3c([nH]c4ccccc34)[C@@](C(=O)OC)(c3cc4c(cc3OC)N(C=O)[C@H]3[C@@](O)(C(=O)OC)[C@H](OC(C)=O)[C@]5(CC)C=CCN6CC[C@]43[C@@H]65)C2)C1 [Vincristine, vincristine]
cytotoxicity at 0.1 µM [2]: 4.5%
cytotoxicity at 0.1 µM [3]: 8.4%
cytotoxicity at 0.1 µM (Homo sapiens, WiDr, 72 h, read-out: Cell death rate (%)): 23.3%
Cell death rate (%) (Vincristine 100 nmol/L combined with PD98059 50 µmol/L (added 12 hours before), time 24): 12.1%
Cell death rate (%) (Vincristine 100 nmol/L combined with PD98059 50 µmol/L (added 12 hours before), time 48): 37.4%
Cell death rate (%) (Vincristine 100 nmol/L combined with PD98059 50 µmol/L (added 12 hours before), time 72): 58.7%
